{"source": "patent US20260294853A1", "about": "“COSMETIC COMPOSITION HAVING ANTI-INFLAMMATORY ACTIVITY” (LG CHEM, LTD., priority 2023, published 2026)", "tested_on": "Mouse macrophages", "test": "Evaluation of Reactive Nitrogen Species Inhibiting Ability (nitric oxide production in LPS-treated mouse macrophages, Griess reagent)", "format": "cell-based", "conditions": "under the treatment concentration of the 3-hydroxypropionic acid; LPS 1 μg/ml", "method": "Mouse macrophages were divided into 1×10^6 cells in a 6-well plate and cultured for 24 hours, then treated with LPS (Lipopolysaccharide, concentration 1 μg/ml) solution, and treated with the 3-hydroxypropionic acid aqueous solution according to Preparation Example 1 at four concentrations (3HP concentration: 0 wt. %, 0.0125 wt. %, 0.025 wt. %, 0.05 wt. %), and then cultured again for 24 hours. Only the medium was then separated and centrifuged for 10 minutes to collect only the supernatant. The supernatant was mixed with Griess reagent (Sigma-Aldrich) reagent in a 1:1 ratio and reacted at room temperature, and then the absorbance (OD, wavelength 540 nm) was measured using a microplate reader. The measured value was substituted into the regression equation obtained from the standard curve prepared by reacting Griess reagent (Sigma-Aldrich) and NaNO2 in a 1:1 ratio to calculate the amount of nitric oxide (NO) produced. Here, the case in which neither the LPS solution nor the 3HP aqueous solution was treated was performed as a negative control group."}
{"smiles": "O=C(O)CCO", "note": "[3HP, 3-Hydroxypropionic acid]", "values": [{"measurement": "effect of inhibiting the production of reactive nitrogen species", "result": "the effect of inhibiting the production of reactive nitrogen species was exhibited"}]}
